This note sets out measurements from US9150528B2, “Compound having detrusor muscle-contracting activity and urethral sphincter muscle-relaxing activity” (ONO PHARMACEUTICAL CO., LTD., priority 2009, dated 2015).

Each structure is given as a SMILES string. Some results are limits rather than exact numbers.

Data set [1] relates to underactive bladder models. The data set can be described thus: Residual urinary volumes and bladder capacities in underactive bladder models (cystometry). It counts as in vivo, rat. The following applies: 0.01 mg/kg, oral, underactive bladder model rats, versus normal group. On the procedure:
The underactive bladder models were constructed in accordance with the following procedure. Female Wistar rats (8 to 9 weeks age) were anesthetized by intraperitoneal administration of Somnopentyl (40 mg/kg), followed by dorsal shaving, and fixed in abdominal positions. Each of the dorsal areas was disinfected with chlorhexidine gluconate (5% hibitane liquid). The waist area was median-incised to expose the spinal column. After excision of the fifth lumbar spinous process, a silicone rubber was inserted into the sixth lumbar direction from a hole bored by a mini drill. For the purpose of avoiding infections, after completion of the surgical operation, benzylpenicillin potassium (25000 U/0.25 mL/body) was added dropwise to the incised area. The muscle and skin of the incised area were sutured with silk threads, and iodine tincture was applied to the sutured area. After the operation, maintenance of voiding was carried out by manual compressions three times daily. For the purpose of avoiding infections, potassium penicillin G (1.25 units/body) was administered subcutaneously. More than 5 days prior to cystometric evaluation, a catheter for cystometrogram was indwelled in the bladder. Anesthesia with sodium pentobarbital (40 mg/kg by intraperitoneal administration) and incision along the midline of the abdomen were carried out, followed by incision of the apex of the bladder. A catheter for cystometrogram filled with physiological saline was inserted into the bladder from a hole of the apical area, and fixed by ligation using silk suture threads. […]
The rats were anesthetized with ether and housed in a Bollmann cage 2 weeks after the construction of the models. To the front end of each of the bladder catheters, a pressure transducer via a three-way cock was connected, and the intravesical pressure was recorded using a strain pressure amplifier•recorder. […]
[…] After 1 hr, physiological saline was perfused into the bladder at a flow rate of 2 mL/h and voiding parameters (bladder capacity and residual urinary volume) were measured. […] Voiding parameters were calculated for each cystometry. […]

The subject of the next data set is normal rats. The data set can be described thus: Blood pressures and heart rates in normal rats. The conditions noted are these: oral; for effect on the blood pressure / increase in heart rate: 0.3 mg/kg. It is filed as in vivo, rat. As for the experimental part: The blood pressures and heart rates of female Wistar rats were measured in accordance with the following procedure. On the day of measurement, indwelling of catheters for blood pressure•heart rate measurement was carried out under anesthesia with ether. The back of the neck of each rat was incised; a feeding catheter (Atom Medical Corporation) filled with heparinized physiological saline was introduced from the back of the neck; the catheter was inserted into the common carotid artery; and the surgical incision was closed. The measurements were carried out in a Bollmann cage under the conscious state, and the evaluations were carried out after confirming that the individual parameters were stabilized. After confirming the stabilization of blood pressure and heart rate, the test compound which was prepared using injectable water containing equimolar NaOH was orally administered at a dose of 5 mL/kg.
The catheter drawn from the back of the neck was connected to a pressure transducer (DX-200, NIHON KOHDEN CORP.), and the blood pressures and heart rates were measured using an amplifier for pressure measurement (Gould Instrument). The blood pressures and heart rates were recorded using a recorder (LINEARCORDERWR3320, GRAPHTEC). For each individual, rates of increase and decrease in average blood pressure and heart rate before administration and 30, 60, 120, and 180 min after administration were calculated with respect to the values of each individual before administration. Changes in blood pressure and heart rate before and after administration of the test compound were evaluated.

The test system of another data set is cynomolgus monkeys. The data set can be described thus: Effects on cardiac function in anesthetized cynomolgus monkeys. It is filed as in vivo, cynomolgus monkey. The conditions noted are these: continuous intravenous 30 min. On the procedure: Cynomolgus monkeys were anesthetized with pentobarbital (at an initial dose of 20-30 mg/kg by intravenous administration; at a dose of 4-5 mg/kg/hr by intravenous continuous administration). A tracheal tube was inserted and experiments were carried out under artificial respiration (fresh air+pure oxygen, ventilatory volume: 10-15 mL/kg, ventilation frequency: 10-15 times/min). In the right lying position, the left thorax was opened between the fourth and fifth intercostal spaces. The […] (the origin of the left anterior descending artery or circumflex branch) and the origin of the ascending main artery were peeled off and transducers for blood flow measurement were located there. The blood flow rates were measured using an electronic blood flowmeter or an ultrasonic blood flowmeter. The blood pressures were measured using a pressure transducer in a state where a catheter was inserted into the right femoral artery. The left ventricular internal pressure was measured in a state where a catheter was inserted from the left carotid artery into the left ventricle. The electrocardiogram was measured using needle electrodes installed in the right armpit and the left thorax. After catheters for administration were inserted into the right and left cephalic veins and femoral veins, the test compound, pentobarbital (under anesthesia) or an aqueous solution (SOLITA T3 containing 1.2% NaHCO3) were administered therethrough. The test compound was continuously administered intravenously 30 min using a continuous infusion system. The blood pressure, left ventricular internal pressure, blood flow rate through the coronary artery and electrocardiogram data were simultaneously inputted to a PowerLab system (LabChart6, AD instruments) to measure/calculate average blood pressure, heart rate, average blood flow rate through the coronary artery, beat volume, stroke volume (beat volume/heart rate), maximum first deviation of the left ventricular internal pressure, total peripheral blood vessel resistance (average blood pressure/beat volume), cardiac performance (average blood pressure x beat volume) and double product (systolic arterial pressure x heart rate), which is indicative of myocardial oxygen consumption.
The averages of all evaluation parameters for 1 min were obtained before administration, immediately after administration, and 10 min, 20 min and 30 min after administration, and changes of the averages relative to the value measured before administration which is defined as 100% were calculated.

In data set [2] the test system is spontaneously hypertensive rats. The data set can be described thus: Blood pressure and heart rate measurement in hypertensive rats. It is filed as in vivo, rat. The following applies: continuous intravenous. As for the experimental part: The blood pressures and heart rates of male spontaneously hypertensive rats were measured. On the day of measurement, indwelling of catheters for blood pressure•heart rate measurement and subject substance administration was carried out under anesthesia with ether. The back of the neck of each rat was incised, a feeding catheter (Atom Medical Corporation) filled with heparinized physiological saline was introduced from the back of the neck; the catheter was inserted into the common carotid artery and internal jugular vein; and the surgical incision was closed. The measurements were conducted in a Bollmann cage under the conscious state and evaluations were carried out after confirming that the individual parameters were stabilized. After confirming the stabilization of blood pressure and heart rate, the test compound was continuously administered intravenously at a flow rate of 5 mL/kg/h for 30 min.
The catheter drawn from the back of the neck was connected to a pressure transducer (DX-200, NIHON KOHDEN CORP.), and the blood pressures and heart rates were measured using a blood pressure amplifier (Gould instrument). The blood pressures and heart rates were recorded on recording paper using a recorder (LINEARCORDER WR3320, GRAPHTEC). The blood pressures and heart rates were converted into values on the recording paper before administration and 2.5, 5, 10, 15, 30, 45 and 60 min after administration. For each individual, rates of increase and decrease in the parameters were evaluated relative to the value before administration (value at 0 min).

Data set [3] has as its system urinary excretion dysfunction models. The data set can be described thus: Urinary excretion dysfunction models, maximal urinary flow rate. It is filed as in vivo. The following applies: 60 ng/kg/h continuous intravenous, cynomolgus monkey urinary excretion dysfunction model. The source says: Urinary excretion dysfunction models were constructed in accordance with the following procedure. After anesthesia of cynomolgus monkeys, the region from the suprapubic area to the abdominal area was shaved, followed by fixing in a dorsal position. The shaved region was disinfected and the four legs were fixed. Using an electrosurgical knife, the skin region from the suprapubic area to the umbilical area and the peritoneal membrane were sequentially incised, followed by damage to the pelvic nerve and removal of the uterus. After the surgical operation, viccillin-containing physiological saline was added dropwise to the incised area. The peritoneal membrane and skin of the incised area were sutured with silk threads and disinfected. Viccillin was administered for 7 consecutive days after surgery. Meloxicam was administered once daily for 7 consecutive days to manage pain in the perioperative period.
The cynomolgus monkeys were seated on monkey chairs, followed by retention of the hands and legs with strings. Injectable water was administered orally, and physiological saline and the test compound (60 ng/kg/h) were continuously administered intravenously to allow urination freely. The maximal urinary flow rate was measured using a urine weighing sensor.

The subject of data set [4] is human lyophilized liver cells. The data set can be described thus: Stability evaluation in lyophilized liver cells. The following applies: 37° C. It counts as in vitro ADME. As for the experimental part:
KHEM5100 medium which includes human lyophilized liver cells after dissolving (final concentration of living cells: 1×10^6 cells/mL) and the test compound (acetonitrile or methanol solution, final concentration≦1%) was incubated at 37° C. Immediately after reaction and with the passage of reaction time, some portions were sampled from the medium. The concentrations of the test compound in the samples were measured by LC/MS/MS. The residual rate of the test compound relative to immediately after reaction was calculated by the following equation: Residual rate=the concentration of the test compound in the sample after reaction/the concentration of the test compound in the sample immediately after reaction×100(%) The residual rates were plotted on a single logarithmic scale against reaction time to calculate loss rate constants. The test was repeated (n=2), and the obtained values were averaged.

The test system of a further data set is male rats. The data set can be described thus: Digestive symptoms after repeated oral administration. The conditions noted are these: 0.1 mg/kg oral, repeated for 4 days. It is filed as in vivo, rat. As for the experimental part: Using male rats, aged 6 weeks, general states of the rats were observed after repeating oral administration of the test compound at a dose of 0.1 mg/kg for 4 days. To a control, injectable water which is a medium was administered.

Data set [5] is described as follows: Parallel artificial membrane permeability assay (PAMPA). It counts as in vitro ADME. The following applies: sum of pH 5.0, 6.2 and 7.4, 25° C., read-out: membrane permeability coefficients (PAMPA(SUM)). On the procedure:
The permeability of the drugs through artificial membranes was measured by parallel artificial membrane permeability assay (PAMPA) under the following conditions. For the measurements, a PAMPA system (pION) was used. The membrane permeability was evaluated by measuring membrane permeability coefficients at three pH values and summing the values (PAMPA(SUM)(cm/sec)).
Lipid membrane: GIT-0 (pION)
Incubation temperature: 25° C.
Donor: 5% DMSO-containing buffer
Compound concentration: 50 μmol/L

Consider `C=C(C)CC[C@](C)(O)C/C=C/[C@H]1CCC(=O)[C@@H]1CCSc1nc(C(=O)O)cs1` [Comparative compound A, 2-[(2-{(1R,2R)-2-[(1E,4S)-4-hydroxy-4,7-dimethyl-1,7-octadien-1-yl]-5-oxocyclopentyl}ethyl)thio]-1,3-thiazole-4-carboxylic acid], for which the bladder capacity result in data set [1] is “significant decrease”. For the same compound, the “effect on the blood pressure” value with normal rats is “tendency to increase”. In the data set on normal rats (1 mg/kg), the “increase in blood pressure” value is on record as “about 10%”.

As to `CCCCC[C@](C)(O)C/C=C/[C@H]1CCC(=O)[C@@H]1CCSc1nc(C(=O)O)cs1` [Comparative compound B, 2-[(2-{(1R,2R)-2-[(1E,4S)-4-hydroxy-4-methyl-1-nonen-1-yl]-5-oxocyclopentyl}ethyl)thio]-1,3-thiazole-4-carboxylic acid, reference compound], the “effect on the cardiac functions” value in the data set with cynomolgus monkeys was “inhibitory effect”. Also, the figures for the “reduction of blood pressure” value in data set [2] (100 ng/kg/min) and in data set [2] (300 ng/kg/min) were “about 10%” and “about 25%”, respectively. Further, the “improvement in maximal urinary flow rate over the vehicle group” value in data set [3] is listed as 27%. Moreover, the “effect on the blood pressure” value in the data set on normal rats is “tendency to decrease”. Further, in the data set with normal rats, the “increase in heart rate” value was “about 20%”. Further, the Residual rate is on record as 100% in data set [4] (Reaction time 0 h); 91.5% in data set [4] (Reaction time 0.5 h); 78.1% in data set [4] (Reaction time 1 h); no more than 80% in data set [4] (Reaction time 1 h, listed as comparative compound B); 62.3% in data set [4] (Reaction time 2 h); “about 60%” in data set [4] (Reaction time 2 h, listed as comparative compound B).

Turning to `C[C@@](O)(C/C=C/[C@H]1CCC(=O)[C@@H]1CCSc1nc(C(=O)O)cs1)CCCC(F)(F)F` [Comparative compound C, 2-[(2-{(1R,5R)-2-oxo-5-[(1E,4S)-8,8,8-trifluoro-4-hydroxy-4-methyl-1-octenyl]cyclopentyl}ethyl)thio]-1,3-thiazole-4-carboxylic acid], the “digestive symptoms such as soft feces” value with male rats is recorded as “soft feces were observed”. Moreover, in the data set with normal rats, the “effect on the blood pressure” value is recorded as “tendency to decrease” and the “increase in heart rate” value is reported as “about 20%”.

As for `C[C@@](O)(C/C=C/[C@H]1COC(=O)N1CCSc1nc(C(=O)O)cs1)CCCC(F)(F)F` [Comparative compound E, 2-[(2-{(4S)-2-oxo-4-[(1E,4S)-8,8,8-trifluoro-4-hydroxy-4-methyl-1-octenyl]-1,3-oxazolidin-3-yl}ethyl)sulfanyl]-1,3-thiazole-4-carboxylic acid, reference compound], the Papp at 4 hr, 50 μmol/L in data set [5] was 0.6 ×10⁻⁶ cm/s.
